Results reported in US8680012B2, “4-phenyl-pyrane-3,5-diones,4-phenyl-thiopyrane-3,6-diones and cyclohexanetriones as novel herbicides” (Syngenta Crop Protection LLC, priority 2006, dated 2014).

How the values were obtained:
Type in all cases: in vivo
Avena fatua (AVEFA) [1] = test: Example B post-emergence herbicidal activity, glasshouse pot test; conditions: 312 h, rate 250 g/ha, evaluated after 13 days, read-out: Post-emergence activity AVEFA (100=total damage to plant; 0=no damage to plant)
Method: (§1) Seeds of a variety of test species were sown in standard soil in pots. After cultivation for one day (pre-emergence) or after 8 days cultivation (post-emergence) under controlled conditions in a glasshouse (at 24/16° C., day/night; 14 hours light; 65% humidity), the plants were sprayed with an aqueous spray solution derived from the formulation of the technical active ingredient in acetone/water (50:50) solution containing 0.5% Tween 20 (polyoxyethelyene sorbitan monolaurate, CAS RN 9005-64-5). The test plants were then grown in a glasshouse under controlled conditions in a glasshouse (at 24/16° C., day/night; 14 hours light; 65% humidity) and watered twice daily. After 13 days for pre and post-emergence, the test was evaluated (100=total damage to plant; 0=no damage to plant).
(§2) Alopecurus myosuroides (ALOMY), Avena fatua (AVEFA), Setaria faberi (SETFA), Echinochloa crus-galli (ECHCG), Solanum nigrum (SOLNI) and Amaranthus retroflexus (AMARE)

[2] = test system: Alopecurus myosuroides (ALOMY); test: as above; conditions: 312 h, rate 250 g/ha, evaluated after 13 days, read-out: Post-emergence activity ALOMY (100=total damage to plant; 0=no damage to plant)
Method: as §1, §2

Setaria faberi (SETFA) [3] = test: as above; conditions: 312 h, rate 250 g/ha, evaluated after 13 days, read-out: Post-emergence activity SETFA (100=total damage to plant; 0=no damage to plant)
Method: as §1, §2

[4] = test system: Amaranthus retroflexus (AMARE); test: as above; conditions: 312 h, rate 250 g/ha, evaluated after 13 days, read-out: Post-emergence activity AMARE (100=total damage to plant; 0=no damage to plant)
Method: as §1, §2

[5] = test system: Echinochloa crus-galli (ECHCG); test: as above; conditions: 312 h, rate 250 g/ha, evaluated after 13 days, read-out: Post-emergence activity ECHCG (100=total damage to plant; 0=no damage to plant)
Method: as §1, §2

Avena fatua (AVEFA) [6] = test: Example B pre-emergence herbicidal activity, glasshouse pot test; conditions: 312 h, rate 250 g/ha, evaluated after 13 days, read-out: Pre-emergence activity AVEFA (100=total damage to plant; 0=no damage to plant)
Method: as §1, §2

[7] = test system: Alopecurus myosuroides (ALOMY); test: as above; conditions: 312 h, rate 250 g/ha, evaluated after 13 days, read-out: Pre-emergence activity ALOMY (100=total damage to plant; 0=no damage to plant)
Method: as §1, §2

Setaria faberi (SETFA) [8] = test: as above; conditions: 312 h, rate 250 g/ha, evaluated after 13 days, read-out: Pre-emergence activity SETFA (100=total damage to plant; 0=no damage to plant)
Method: as §1, §2

[9] = test system: Amaranthus retroflexus (AMARE); test: as above; conditions: 312 h, rate 250 g/ha, evaluated after 13 days, read-out: Pre-emergence activity AMARE (100=total damage to plant; 0=no damage to plant)
Method: as §1, §2

[10] = test system: Echinochloa crus-galli (ECHCG); test: as above; conditions: 312 h, rate 250 g/ha, evaluated after 13 days, read-out: Pre-emergence activity ECHCG (100=total damage to plant; 0=no damage to plant)
Method: as §1, §2

Which pest or weed control at 250 g/ha (Avena fatua (AVEFA) [1]) does the source give for CCc1ccc(-c2ccc(Cl)cc2Cl)cc1C1=C(OC(=O)COC)C(C)(C)OC(C)(C)C1=O [Compound D-24] here?
The pest or weed control at 250 g/ha was 20%.

What about the pest or weed control at 250 g/ha [2] of the same molecule?
The pest or weed control at 250 g/ha was 0%.

What about the pest or weed control at 250 g/ha (Setaria faberi (SETFA) [3]) of the same molecule?
Its pest or weed control at 250 g/ha is 100%.

What about the pest or weed control at 250 g/ha [4] of the same molecule?
The pest or weed control at 250 g/ha was 0%.

And the pest or weed control at 250 g/ha [5]?
The pest or weed control at 250 g/ha was 100%.

What about the pest or weed control at 250 g/ha (Avena fatua (AVEFA) [6]) of the same molecule?
Its pest or weed control at 250 g/ha is 0%.

What about the pest or weed control at 250 g/ha [7] of the same molecule?
Its pest or weed control at 250 g/ha is 0%.

And the pest or weed control at 250 g/ha (Setaria faberi (SETFA) [8])?
The pest or weed control at 250 g/ha was 90%.

What about the pest or weed control at 250 g/ha [9] of the same molecule?
The pest or weed control at 250 g/ha was 20%.

What about the pest or weed control at 250 g/ha [10] of the same molecule?
The pest or weed control at 250 g/ha was 100%.

For CCc1ccc(-c2ccc(Cl)cc2Cl)cc1C1=C(OC(C)=O)C(C)(C)OC(C)(C)C1=O [Compound D-23], which pest or weed control at 250 g/ha (Avena fatua (AVEFA) [1]) is on record?
The pest or weed control at 250 g/ha was 0%.

And the pest or weed control at 250 g/ha [2]?
Its pest or weed control at 250 g/ha is 0%.

And the pest or weed control at 250 g/ha (Setaria faberi (SETFA) [3])?
Its pest or weed control at 250 g/ha is 90%.

And the pest or weed control at 250 g/ha [4]?
The pest or weed control at 250 g/ha was 0%.

And the pest or weed control at 250 g/ha [5]?
The pest or weed control at 250 g/ha was 100%.

And the pest or weed control at 250 g/ha (Avena fatua (AVEFA) [6])?
Its pest or weed control at 250 g/ha is 0%.

And the pest or weed control at 250 g/ha [7]?
Its pest or weed control at 250 g/ha is 0%.

What about the pest or weed control at 250 g/ha (Setaria faberi (SETFA) [8]) of the same molecule?
Its pest or weed control at 250 g/ha is 90%.

What about the pest or weed control at 250 g/ha [9] of the same molecule?
The pest or weed control at 250 g/ha was 0%.

And the pest or weed control at 250 g/ha [10]?
The pest or weed control at 250 g/ha was 100%.

What does the source list for Cc1ccc(-c2ccc(Cl)cc2F)cc1C1=C(O)C(C)(C)OC(C)(C)C1=O [Compound A-59]?
pest or weed control at 250 g/ha (Avena fatua (AVEFA) [1]): 50%; pest or weed control at 250 g/ha [2]: 30%; pest or weed control at 250 g/ha (Setaria faberi (SETFA) [3]): 90%; pest or weed control at 250 g/ha [4]: 0%; pest or weed control at 250 g/ha [5]: 100%; pest or weed control at 250 g/ha (Avena fatua (AVEFA) [6]): 40%; pest or weed control at 250 g/ha [7]: 30%; pest or weed control at 250 g/ha (Setaria faberi (SETFA) [8]): 40%; pest or weed control at 250 g/ha [9]: 0%; pest or weed control at 250 g/ha [10]: 90%

How did the pest or weed control at 250 g/ha (Avena fatua (AVEFA) [1]) turn out when Cc1ccc(-c2cnn(Cc3ccccc3)c2)cc1C1=C(O)C(C)(C)OC(C)(C)C1=O [Compound A-143] was run?
The pest or weed control at 250 g/ha was 80%.

What about the pest or weed control at 250 g/ha [2] of the same molecule?
Its pest or weed control at 250 g/ha is 90%.

And the pest or weed control at 250 g/ha (Setaria faberi (SETFA) [3])?
The pest or weed control at 250 g/ha was 90%.

And the pest or weed control at 250 g/ha [4]?
Its pest or weed control at 250 g/ha is 0%.

What about the pest or weed control at 250 g/ha [5] of the same molecule?
Its pest or weed control at 250 g/ha is 100%.

What about the pest or weed control at 250 g/ha (Avena fatua (AVEFA) [6]) of the same molecule?
Its pest or weed control at 250 g/ha is 0%.

What about the pest or weed control at 250 g/ha [7] of the same molecule?
Its pest or weed control at 250 g/ha is 20%.

What about the pest or weed control at 250 g/ha (Setaria faberi (SETFA) [8]) of the same molecule?
Its pest or weed control at 250 g/ha is 70%.

What about the pest or weed control at 250 g/ha [9] of the same molecule?
Its pest or weed control at 250 g/ha is 0%.

What about the pest or weed control at 250 g/ha [10] of the same molecule?
The pest or weed control at 250 g/ha was 0%.

What does the source list for CCc1ccc(-c2ccc(Cl)cc2Cl)cc1C1=C(O)[C@]2(C)O[C@@H](CC2COC)C1=O (some centres unmarked) [Compound A-133]?
pest or weed control at 250 g/ha (Avena fatua (AVEFA) [1]): 80%; pest or weed control at 250 g/ha [2]: 20%; pest or weed control at 250 g/ha (Setaria faberi (SETFA) [3]): 100%; pest or weed control at 250 g/ha [4]: 70%; pest or weed control at 250 g/ha [5]: 100%; pest or weed control at 250 g/ha (Avena fatua (AVEFA) [6]): 70%; pest or weed control at 250 g/ha [7]: 10%; pest or weed control at 250 g/ha (Setaria faberi (SETFA) [8]): 80%; pest or weed control at 250 g/ha [9]: 0%; pest or weed control at 250 g/ha [10]: 0%

Which results are given for CCc1ccc(-c2ccc(Cl)c(Cl)c2)cc1C1=C(O)[C@@]2(C)CC[C@H](O2)C1=O (single isomer, unassigned) [Compound A-123]?
pest or weed control at 250 g/ha (Avena fatua (AVEFA) [1]): 70%; pest or weed control at 250 g/ha [2]: 90%; pest or weed control at 250 g/ha (Setaria faberi (SETFA) [3]): 100%; pest or weed control at 250 g/ha [4]: 0%; pest or weed control at 250 g/ha [5]: 100%; pest or weed control at 250 g/ha (Avena fatua (AVEFA) [6]): 80%; pest or weed control at 250 g/ha [7]: 50%; pest or weed control at 250 g/ha (Setaria faberi (SETFA) [8]): 100%; pest or weed control at 250 g/ha [9]: 0%; pest or weed control at 250 g/ha [10]: 70%

For CC[C@]12CC[C@H](O1)C(=O)C(c1cc(-c3ccc(Cl)cc3)ccc1C)=C2O (single isomer, unassigned) [Compound A-80], which pest or weed control at 250 g/ha (Avena fatua (AVEFA) [1]) is on record?
The pest or weed control at 250 g/ha was 0%.

And the pest or weed control at 250 g/ha [2]?
The pest or weed control at 250 g/ha was 30%.

What about the pest or weed control at 250 g/ha (Setaria faberi (SETFA) [3]) of the same molecule?
The pest or weed control at 250 g/ha was 90%.

What about the pest or weed control at 250 g/ha [4] of the same molecule?
Its pest or weed control at 250 g/ha is 0%.

And the pest or weed control at 250 g/ha [5]?
The pest or weed control at 250 g/ha was 100%.

And the pest or weed control at 250 g/ha (Avena fatua (AVEFA) [6])?
Its pest or weed control at 250 g/ha is 0%.

What about the pest or weed control at 250 g/ha [7] of the same molecule?
Its pest or weed control at 250 g/ha is 30%.

And the pest or weed control at 250 g/ha (Setaria faberi (SETFA) [8])?
Its pest or weed control at 250 g/ha is 70%.

And the pest or weed control at 250 g/ha [9]?
The pest or weed control at 250 g/ha was 0%.

What about the pest or weed control at 250 g/ha [10] of the same molecule?
Its pest or weed control at 250 g/ha is 40%.

What does the source list for CCOc1ccc(-c2ccc(Cl)cc2F)cc1C1=C(O)C(C)(C)OC(C)(C)C1=O [Compound A-88]?
pest or weed control at 250 g/ha (Avena fatua (AVEFA) [1]): 10%; pest or weed control at 250 g/ha [2]: 50%; pest or weed control at 250 g/ha (Setaria faberi (SETFA) [3]): 90%; pest or weed control at 250 g/ha [4]: 0%; pest or weed control at 250 g/ha [5]: 90%; pest or weed control at 250 g/ha (Avena fatua (AVEFA) [6]): 10%; pest or weed control at 250 g/ha [7]: 0%; pest or weed control at 250 g/ha (Setaria faberi (SETFA) [8]): 0%; pest or weed control at 250 g/ha [9]: 0%; pest or weed control at 250 g/ha [10]: 0%
